The assay addresses T1, interaction between biotinylated human S100A9 and human RAGE-Fc (Homo sapiens, UniProt P06702).
T1 construct: made in house; host or cells: E. coli
T1 sequence (P06702 1-114): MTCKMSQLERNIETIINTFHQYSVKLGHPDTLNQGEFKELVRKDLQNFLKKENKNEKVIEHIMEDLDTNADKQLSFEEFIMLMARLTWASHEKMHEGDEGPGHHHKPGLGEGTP
The assay can be described thus: AlphaScreen inhibition assay, biot-hS100A9:hRAGE-Fc. In kind it is binding. To be noted: biot-hS100A9 pre-incubated with compound 1 h, assay buffer with CaCl2 and ZnCl2. The source says: Inhibition Assay, Biot-hS100A9:hRAGE-Fc
The AlphaScreen (Amplified Luminescent Proximity Homogeneous Assay) contains two types of beads, Alpha Donor beads and Acceptor beads (PerkinElmer). Upon laser excitation at 680 nm a photosensitizer in the Donor bead converts ambient oxygen to a more excited singlet state. The singlet oxygen molecule diffuses (maximum 200 nm) to react with a thioxene derivative in the Acceptor bead and generates a chemiluminescence reaction. Fluorophores in the Acceptor bead subsequently emit light at 520-620 nm which can be detected in the EnVision® Multilabel plate Reader (PerkinElmer). The beads are light sensitive and all work with the beads is performed under subdued light conditions or using green filters on light sources (Roscolux Chroma Green #389, Rosco).
In the AlphaScreen Inhibition Assay described here, protein A (Staphylococcus aureus) conjugated Acceptor beads are used together with streptavidin coated Donor beads (Perkin Elmer 6760617M). The Acceptor beads are pre-incubated with Fc-tagged recombinant human RAGE (rhRAGE-Fc) allowing binding of the rhRAGE-Fc to protein A on the beads. Biotinylated human S100A9 (biot-hS100A9) is pre-incubated with the low molecular test compounds. The pre-mixes are then added to the wells of a micro-plate and incubated allowing interaction between biot-hS100A9 and rhRAGE-Fc. Subsequent addition of streptavidin coated Donor beads causes binding of the streptavidin to the biotinylated hS100A9. After an additional incubation the signal is measured.
Without inhibitory compounds, the interaction of biot-hS100A9 to rhRAGE-Fc will bring the Acceptor and Donor beads in close proximity thus generating a high signal. With an inhibitor present the complex will not form resulting in a decreased signal. The assay is illustrated in FIG. 1.
Chemicals and Reagents. • AlphaScreen® General IgG (Protein A) Detection Kit, (PerkinElmer 6760617M) • HBS-P buffer (GE Healthcare, BR-1003-68) • HBS-N buffer (GE Healthcare, BR-1003-69) • CaCl2 in HBS-P • ZnCl2 in Milli-Q water • DMSO • Biotinylated hS100A9, (biotinylated via cystein by EZ-link Iodoacetyl-PEG2-Biotin reagent (Pierce no. 21334), in HBS-N • rhRAGE-Fc (R&D Systems, 1145-RG-50), in HBS-P
The AlphaScreen assay method is used for screening of the inhibitory effect of different compound samples at fixed concentrations or for IC50 determination by varying the compound concentrations. Samples of test compounds and references are prepared from solutions in DMSO. Relevant reference inhibitors and DMSO are used as controls for defined inhibition and non-inhibition, respectively in the assay. The percent inhibition in assay for test compounds and references are calculated by comparing their obtained assay signals with the signal values for the control with only DMSO (no compound).
Assay concentration of biotinylated hS100A9 and rhRAGE-Fc are batch dependent, and are determined and defined by separate cross-titration experiments using this AlphaScreen inhibition method to verify the optimal setup regarding signal strength and achievement of a defined inhibition with relevant reference compounds. The Final assay concentrations of Acceptor and Donor beads are 20 μg/mL.
Assay buffer is prepared by adding CaCl2 and ZnCl2 to HBS-P and is used freshly prepared in the experiment.
Biotin-hS100A9 solution for the experiment is prepared by dilution of appropriate amount of stock solution biot-hS100A9 in assay buffer (with CaCl2 and ZnCl2) and incubation in room temperature for 30 minutes.
rhRAGE-Fc solution for the experiment is prepared by dilution appropriate amount of rhRAGE-Fc stock in assay buffer.
Protein A Acceptor beads are diluted in assay buffer and are added to an equal volume of the prepared diluted rhRAGE-Fc solution. The beads are light sensitive. The vial is covered with aluminum foil and incubated at room temperature in the dark until biot-hS100A9+compound incubation is finished (see below). […]
(In Alpha technology, singlet oxygen from a donor bead excites a nearby acceptor bead.)

These results are taken from patent US10385069B2, “Imidazo[2,1-B]thiazole and 5,6-dihydroimidazo[2,1-B]thiazole derivatives useful as S100-inhibitors” (Active Biotech AB, priority 2015, dated 2019).

Structures are written as SMILES.

For the compound `O=C(NS(=O)(=O)C(F)(F)F)c1cn2c(n1)sc1c(Cl)c(Cl)ccc12` [Example 26, 9,10-Dichloro-N-trifluoromethanesulfonyl-7-thia-2,5-diazatricyclo[6.4.0.0^2,6]dodeca-1(8),3,5,9,11-pentaene-4-carboxamide], the IC50 (commonly the concentration at which inhibition is half-maximal) was found to be 420 nM.

As for `COC(=O)CCS(=O)(=O)NC(=O)c1cn2c(n1)sc1c(Cl)c(Cl)ccc12` [Example 27, Methyl 3-[({9,10-dichloro-7-thia-2,5-diazatricyclo[6.4.0.0^2 6]dodeca-1(8),3,5,9,11-pentaen-4-yl}formamido)sulfonyl]propanoate], the IC50 is 70 nM.

In the case of `O=C(NS(=O)(=O)CCCO)c1cn2c(n1)sc1c(Cl)c(Cl)ccc12` [Example 28, 9,10-Dichloro-N-(3-hydroxypropanesulfonyl)-7-thia-2,5-diazatricyclo[6.4.0.0^2,6]dodeca-1(8),3,5,9,11-pentaene-4-carboxamide], the IC50 was 170 nM.

With `CCN(CC)CCCS(=O)(=O)NC(=O)c1cn2c(n1)sc1c(Cl)c(Cl)ccc12` [Example 29, 9,10-Dichloro-N-[3-(diethylamino)propanesulfonyl]-7-thia-2,5-diazatricyclo[6.4.0.0^2,6]dodeca-1(8),3,5,9,11-pentaene-4-carboxamide], the IC50 was 460 nM.

For the compound `CS(=O)(=O)NC(=O)Cc1cn2c(n1)sc1c(Cl)c(Cl)ccc12` [Example 30, 2-{9,10-Dichloro-7-thia-2,5-diazatricyclo[6.4.0.0^2,6]dodeca-1(8),3,5,9,11-pentaen-4-yl}-N-methanesulfonylacetamide], the IC50 stood at 2910 nM.

Regarding `O=C(O)c1cn2c3c(sc2n1)CCCC3` [Example 31, 7-Thia-2,5-diazatricyclo[6.4.0.0^2,6]dodeca-1(8),3,5-triene-4-carboxylic acid], the IC50 worked out at 2390 nM.

As to `CC1(C)Cc2c(sc3nc(C(=O)O)cn23)C(C)(C)C1` [Example 32, 9,9,11,11-Tetramethyl-7-thia-2,5-diazatricyclo[6.4.0.0^2,6]dodeca-1(8),3,5-triene-4-carboxylic acid], the IC50 was 320 nM.

Consider `CC1(C)CCc2c(sc3nc(C(=O)O)cn23)C1` [Example 33, 10,10-Dimethyl-7-thia-2,5-diazatricyclo[6.4.0.0^2,6]dodeca-1(8),3,5-triene-4-carboxylic acid], for which the IC50 was determined as 830 nM.

`O=C(O)c1cn2c3c(sc2n1)CC(c1ccccc1)CC3` (centres unmarked) [Example 34, 10-Phenyl-7-thia-2,5-diazatricyclo[6.4.0.0^2,6]dodeca-1(8),3,5-triene-4-carboxylic acid]: the IC50 came to 1500 nM.

For `CC(C)(C)C1CCc2c(sc3nc(C(=O)O)cn23)C1` (centres unmarked) [Example 35, 10-tert-Butyl-7-thia-2,5-diazatricyclo[6.4.0.0^2,6]dodeca-1(8),3,5-triene-4-carboxylic acid], the IC50 stood at 450 nM.

Take `CC1(C)Cc2c(sc3nc(C(=O)O)cn23)C1(C)C` [Example 36, 4,4,5,5-Tetramethyl-7-thia-1,9-diazatricyclo[6.3.0.0^2,6]undeca-2(6),8,10-triene-10-carboxylic acid]: the IC50 is 360 nM.

Turning to `O=C(O)c1cn2c3c(sc2n1)CCCCC3` [Example 37, 7-Thia-2,5-diazatricyclo[6.5.0.0^2,6]trideca-1(8),3,5-triene-4-carboxylic acid], the IC50 is 1050 nM.

On to `CC1(C)CCc2sc3nc(C(=O)O)cn3c2C1` [Example 38, 11,11-Dimethyl-7-thia-2,5-diazatricyclo[6.4.0.0^2,6]dodeca-1(8),3,5-triene-4-carboxylic acid], for which the IC50 was 830 nM.

Take `O=C(O)c1cn2c3c(sc2n1)C(O)CCC3` (centres unmarked) [Example 39, 9-Hydroxy-7-thia-2,5-diazatricyclo[6.4.0.0^2,6]dodeca-1(8),3,5-triene-4-carboxylic acid]: the IC50 is 2980 nM.

Consider `CC(C)(C)Nc1c(C(=O)O)nc2sc3c(n12)CCC(C(C)(C)C)C3` (centres unmarked) [Example 40, 10-tert-Butyl-3-(tert-butylamino)-7-thia-2,5-diazatricyclo[6.4.0.0^2,6]dodeca-1(8),3,5-triene-4-carboxylic acid], for which the 50% inhibitory concentration (IC50) is 460 nM.

Regarding `O=C(O)c1cn2c3c(sc2n1)-c1ccccc1CC3` [Example 41, 16-Thia-11,14-diazatetracyclo[8.6.0.0^2,7.0^11,15]hexadeca-1 (10),2(7),3,5,12,14-hexaene-13-carboxylic acid], the IC50 stood at 360 nM.

Regarding `CC(C)(C)C1CCc2c(sc3nc(C(=O)O)c(NCc4ccccc4)n23)C1` (centres unmarked) [Example 42, 3-(Benzylamino)-10-tert-butyl-7-thia-2,5-diazatricyclo[6.4.0.0^2,6]dodeca-1(8),3,5-triene-4-carboxylic acid], the IC50 worked out at 1040 nM.

As to `CC1(C)CCCc2c1sc1nc(C(=O)O)cn21` [Example 43, 9,9-Dimethyl-7-thia-2,5-diazatricyclo[6.4.0.0^2,6]dodeca-1(8),3,5-triene-4-carboxylic acid], the half-maximal inhibitory concentration (IC50) is 1240 nM.

In the case of `CC1CCCc2c1sc1nc(C(=O)O)cn21` (centres unmarked) [Example 44, 9-Methyl-7-thia-2,5-diazatricyclo[6.4.0.0^2,6]dodeca-1(8),3,5-triene-4-carboxylic acid], the IC50 was 840 nM.

Turning to `CC(C)(C)C1CCc2c(sc3nc(CC(=O)O)cn23)C1` (centres unmarked) [Example 45, 2-{10-tert-Butyl-7-thia-2,5-diazatricyclo[6.4.0.0^2,6]dodeca-1(8),3,5-trien-4-yl}acetic acid], the IC50 was determined as 3100 nM.

For the compound `CC1(C)Cc2c(sc3nc(CC(=O)O)cn23)C(C)(C)C1` [Example 46, 2-{9,9,11,11-Tetramethyl-7-thia-2,5-diazatricyclo[6.4.0.0^2,6]dodeca-1(8),3,5-trien-4-yl}acetic acid], the IC50 was found to be 4940 nM.

As to `CC(C)(C)C1CCc2c(sc3nc(C(=O)NS(C)(=O)=O)cn23)C1` (centres unmarked) [Example 47, 10-tert-Butyl-N-methanesulfonyl-7-thia-2,5-diazatricyclo[6.4.0.0^2,6]dodeca-1(8),3,5-triene-4-carboxamide], the IC50 is 340 nM.

For the compound `CC1(C)CCc2sc3nc(C(=O)NS(C)(=O)=O)cn3c2C1` [Example 50, N-Methanesulfonyl-11,11-dimethyl-7-thia-2,5-diazatricyclo[6.4.0.0^2,6]dodeca-1(8),3,5-triene-4-carboxamide], the IC50 came out at 1040 nM.

As for `CC(C)(C)C1CCc2c(sc3nc(C(=O)NS(=O)(=O)CCCN4CCOCC4)cn23)C1` (centres unmarked) [Example 51, 10-tert-Butyl-N-[3-(morpholin-4-yl)propanesulfonyl]-7-thia-2,5-diazatricyclo[6.4.0.0^2,6]dodeca-1(8),3,5-triene-4-carboxamide], the half-maximal inhibitory concentration (IC50) is 490 nM.

In the case of `CC1(C)Cc2c(sc3nc(C(=O)NS(C)(=O)=O)cn23)C1(C)C` [Example 52, N-Methanesulfonyl-4,4,5,5-tetramethyl-7-thia-1,9-diazatricyclo[6.3.0.0^2,6]undeca-2(6),8,10-triene-10-carboxamide], the IC50 came to 440 nM.

For `CC1(C)Cc2c(sc3nc(C(=O)NS(C)(=O)=O)cn23)C(C)(C)C1` [Example 53, N-Methanesulfonyl-9,9,11,11-tetramethyl-7-thia-2,5-diazatricyclo[6.4.0.0^2,6]dodeca-1(8),3,5-triene-4-carboxamide], the IC50 is 480 nM.
